Experimental data: US10829452B2, “Histone methyltransferase inhibitors” (GLOBAL BLOOD THERAPEUTICS, INC., priority 2016, dated 2020)
Counter-ions that a name gives are not always drawn.

Molecular target: T1, G9a (Homo sapiens, UniProt Q96KQ7)
T1 sequence (Q96KQ7 1-1210): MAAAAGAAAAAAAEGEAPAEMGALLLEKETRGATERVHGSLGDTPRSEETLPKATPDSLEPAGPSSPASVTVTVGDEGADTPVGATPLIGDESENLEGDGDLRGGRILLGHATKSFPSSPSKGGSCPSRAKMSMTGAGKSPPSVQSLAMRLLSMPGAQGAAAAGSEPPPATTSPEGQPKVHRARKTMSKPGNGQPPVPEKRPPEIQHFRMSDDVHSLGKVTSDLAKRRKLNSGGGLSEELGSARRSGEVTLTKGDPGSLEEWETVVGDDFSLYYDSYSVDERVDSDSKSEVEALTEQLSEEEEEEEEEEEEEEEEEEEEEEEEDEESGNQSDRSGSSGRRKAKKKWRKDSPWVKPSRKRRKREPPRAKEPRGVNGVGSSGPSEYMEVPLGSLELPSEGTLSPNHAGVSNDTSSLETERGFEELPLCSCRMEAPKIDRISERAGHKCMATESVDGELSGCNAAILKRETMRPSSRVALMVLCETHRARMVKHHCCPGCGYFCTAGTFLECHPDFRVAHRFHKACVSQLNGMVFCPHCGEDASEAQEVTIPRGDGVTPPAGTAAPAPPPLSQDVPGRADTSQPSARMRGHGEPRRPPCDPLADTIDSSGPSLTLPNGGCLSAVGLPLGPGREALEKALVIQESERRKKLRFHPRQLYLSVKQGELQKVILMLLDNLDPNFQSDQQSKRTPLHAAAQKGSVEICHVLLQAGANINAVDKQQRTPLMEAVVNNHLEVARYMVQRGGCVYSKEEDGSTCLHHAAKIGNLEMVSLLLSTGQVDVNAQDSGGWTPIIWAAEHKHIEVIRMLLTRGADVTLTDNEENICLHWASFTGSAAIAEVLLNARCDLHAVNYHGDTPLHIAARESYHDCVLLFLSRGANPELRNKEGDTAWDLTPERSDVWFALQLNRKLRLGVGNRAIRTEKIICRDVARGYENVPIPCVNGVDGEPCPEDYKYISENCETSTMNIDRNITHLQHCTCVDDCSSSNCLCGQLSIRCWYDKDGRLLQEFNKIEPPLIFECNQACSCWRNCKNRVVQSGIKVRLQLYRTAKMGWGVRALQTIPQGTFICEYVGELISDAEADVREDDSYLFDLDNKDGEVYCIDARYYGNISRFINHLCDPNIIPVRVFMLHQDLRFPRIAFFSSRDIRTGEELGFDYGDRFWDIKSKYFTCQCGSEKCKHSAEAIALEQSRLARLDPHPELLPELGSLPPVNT
Assay: G9a AlphaLISA enzymatic activity assay
Assay type: biochemical
Conditions: 0.15 nM G9a, 15 uM S-adenosyl-methionine, 100 nM biotinylated histone 3 peptide (1-21), 1 hour at room temperature; read-out: G9a in (uM) (IC50, concentration that produced 50% inhibition)
Source text: The G9a AlphaLISA assay was used to detect the methyl modifications of a biotinylated histone H3 peptide by the compounds. These modifications are done by the histone methyl transferase activity of the G9a enzyme. The assay consists of reading a chemiluminescent signal at 615 nm; this signal is generated by a laser excitation at 680 nm that transfers a reactive singlet oxygen between the donor beads and acceptor beads. Donor beads are streptavidin conjugated and bind to the biotin on the peptide. Acceptor beads are conjugated with an antibody that recognizes the specific G9a methyl mark on the peptide. If there is a methyl mark on the peptide, the acceptor beads will bind to the peptide. Upon binding, the acceptor beads will be in close proximity (<200 nm) of the donor beads and when the donor beads are excited, the transfer of the oxygen can occur and a strong signal will be generated. If there is no methyl mark, the interaction between beads will not occur and signal will be at background levels.
For the assay, the following buffer was used to set up reactions: 50 mM Tris-HCl pH9, 50 mM NaCl, 0.01% Tween-20 and 1 mM DTT (added fresh prior to starting the reactions). The assay is set up by adding a final concentration of 0.15 nM G9a, 15 uM S-adenosyl-methionine and, 100 nM biotinylated histone 3 peptide (1-21). The reaction is incubated at room temperature for 1 hour, and subsequently quenched by the addition of the acceptor beads (anti-H3k9me2 AlphaLISA acceptor beads, PerkinElmer # AL117) at a final concentration of 20 ug/mL. The acceptor beads are incubated for 1 hour. After 1 hour, the donor beads are added at a final concentration of 20 ug/mL (Alpha Streptavidin donor beads, PerkinElmer #6760002). Donor beads are incubated for 0.5 hours. Both donor and acceptor beads are resuspended in AlphaLISA 5X Epigenetics Buffer 1 Kit (PerkinElmer # AL008) prior to addition to the reaction. All manipulations and incubations with the donor and acceptor beads are done in subdued light. Signal is detected in an EnVision plate reader in Alpha mode (see ACS Med Chem Lett. 2014 Jan. 2; 5(2):205-9. doi: 10.1021/m1400496h. eCollection 2014. Discovery and development of potent and selective inhibitors of histone methyltransferase g9a.)
Percent inhibition was calculated for each compound dilution and the concentration that produced 50% inhibition was calculated. This value is presented as the IC50.

First: COc1cc2c3c(c(N(C)C(C)C)nc2cc1OCCCN1CCCC1)CCC3 [Example 9, 8-methoxy-N-methyl-N-(propan-2-yl)-7-[3-(pyrrolidin-1-yl)propoxy]-1H,2H,3H-cyclopenta[c]quinolin-4-amine trifluoroacetate]
Second: COc1cc2c3c(c(O)nc2cc1OCCCN1CCCC1)CCC3 [Example 37, 8-methoxy-7-[3-(pyrrolidin-1-yl)propoxy]-1H,2H,3H-cyclopenta[c]quinolin-4-ol trifluoroacetate]
The IC50 of the first is 1.9-fold lower: 0.69 µM for the first, 1.3 µM for the second.

Going from COc1cc2c3c(c(NC4CC4)nc2cc1OCCCN1CCCC1)COCC3 [Example 55, N-cyclopropyl-9-methoxy-8-[3-(pyrrolidin-1-yl)propoxy]-1H,2H,4H-pyrano[3,4-c]-quinolin-5-amine formate] to COc1cc2c3c(c(NC4CC4)nc2cc1OCCCN1CCCC1)CCCC3 [Example 19, N-cyclopropyl-2-methoxy-3-[3-(pyrrolidin-1-yl)propoxy]-7,8,9,10-tetrahydrophenanthridin-6-amine formate], the IC50 falls from 0.32 µM to 0.057 µM (5.6-fold). The second is the more potent here.

First: COc1cc2c3c(c(N4CCCC4)nc2cc1OCCCN1CCCC1)CCC3 [Example 10, 1-{8-methoxy-7-[3-(pyrrolidin-1-yl)propoxy]-1H,2H,3H-cyclopenta[c]quinolin-4-yl}pyrrolidine formate]
Second: COc1cc2c3c(c(NCC4CCC4)nc2cc1OCCCN1CCCC1)CCC3 [Example 49, N-(cyclobutylmethyl)-8-methoxy-7-[3-(pyrrolidin-1-yl)propoxy]-1H,2H,3H-cyclopenta[c]quinolin-4-amine formate]
The IC50 of the first is 4.1-fold higher: 0.19 µM for the first, 0.046 µM for the second. The second is the more potent here.

Compared with CCNc1nc2cc(OCCCN3CCCC3)c(OC)cc2c2c1COCC2 [Example 58, N-ethyl-9-methoxy-8-[3-(pyrrolidin-1-yl)propoxy]-1H,2H,4H-pyrano[3,4-c]quinolin-5-amine formate], COc1cc2c3c(c(NC(C)C)nc2cc1OCCCN1CCCC1)COC3 [Example 46, 8-methoxy-N-(propan-2-yl)-7-[3-(pyrrolidin-1-yl)propoxy]-1H,3H-furo[3,4-c]quinolin-4-amine] is 1.5-fold higher in IC50: 0.17 µM for the first, 0.26 µM for the second.

Compared with COc1cc2c3c(c(NCC(C)(C)C)nc2cc1OCCCN1CCCC1)CCC3 [Example 101, N-(2,2-dimethylpropyl)-8-methoxy-7-[3-(pyrrolidin-1-yl)propoxy]-1H,2H,3H-cyclopenta[c]quinolin-4-amine formate], COc1cc2c3c(c(NCCC(F)(F)F)nc2cc1OCCCN1CCCC1)CCC3 [Example 66, 8-methoxy-7-[3-(pyrrolidin-1-yl)propoxy]-N-(3,3,3-trifluoropropyl)-1H,2H,3H-cyclopenta[c]quinolin-4-amine] is 3.1-fold higher in IC50: 0.07 µM for the first, 0.22 µM for the second. The first is the more potent here.

First: COc1cc2c(cc1OCCCN1CCCC1)nc(NC(C)C)c1cccnc12 [Example 52, 9-methoxy-N-(propan-2-yl)-8-[3-(pyrrolidin-1-yl)propoxy]benzo[h]1,6-naphthyridin-5-amine formate]
Second: COc1cc2c3c(c(NC(C)C)nc2cc1OCCCN1CCCC1)CCCCN3 [Example 34, 10-methoxy-N-(propan-2-yl)-9-[3-(pyrrolidin-1-yl)propoxy]-1H,2H,3H,4H,5H-azepino[3,2-c]quinolin-6-amine formate]
The IC50 of the first is 34-fold higher: 0.34 µM for the first, 0.01 µM for the second. The second is the more potent here.

First: CNc1nc2cc(OCCCN3CCCC3)c(OC)cc2c2c1CCCN2 [Example 26, 9-methoxy-N-methyl-8-[3-(pyrrolidin-1-yl)propoxy]-1H,2H,3H,4H-benzo[h]1,6-naphthyridin-5-amine formate]
Second: CNc1nc2cc(OCCCN3CCCC3)c(OC)cc2c2c1CCC(C)N2 (stereo not drawn) [Example 29, 9-methoxy-N,2-dimethyl-8-[3-(pyrrolidin-1-yl)propoxy]-1H,2H,3H,4H-benzo[h]1,6-naphthyridin-5-amine formate]
The IC50 of the first is 2.2-fold lower: 0.004 µM for the first, 0.009 µM for the second. The first is the more potent here.

Compound COc1cc2c3c(c(C)nc2cc1OCCCN1CCCC1)CCC(C)(C)N3 [Example 78, 1-[3-({9-methoxy-2,2,5-trimethyl-1H,2H,3H,4H-benzo[h]1,6-naphthyridin-8-yl}oxy)propyl]pyrrolidine] has an IC50 of 0.003 µM.
